Measured values taken from patent US10501748B2, “Methods and compositions for integration of an exogenous sequence within the genome of plants” (Dow AgroSciences LLC, priority 2013, dated 2019).

Columns and labels:
[1] = system: protoplasts of SEC-derived cell suspension culture of cv. Bobwhite MPB26RH; assay: basal tolerance to BASTA of protoplast agarose bead-type cultures (calli growth); type: cell-based, Triticum aestivum; settings: 2 weeks
Excerpt: BASTA® selection conditions are optimized using protoplasts derived from somatic embryogenic callus (SEC)-derived cell suspension culture of the wheat line cv. Bobwhite MPB26RH. While protoplasts derived from Bobwhite MPB26RH are non-totipotent (i.e., cannot be used to regenerate entire plants), the selection conditions established for enriching the events that express the PAT gene are expected to be transferable to any protoplast-based transformation system based on a totipotent wheat genotype. The experiments are conducted, and the basal tolerance of the wild-type donor wheat line cv. Bobwhite MPB26RH to BASTA® is established. The use of BASTA® selection conditions stronger than basal tolerance are identified and used to select for transformed cells expressing the PAT gene.
Protoplasts are isolated from an established SEC-derived cell suspension culture and used to establish agarose bead-types cultures, as described previously. The basal tolerance of wheat line cv. Bobwhite MPB26RH to BASTA® is determined by incubating the agarose bead-type cultures in media supplemented with 0, 0.5, 2.5, 5, 7.5, 10, 20, 30, 40 and 50 mg/L BASTA® and assessing the rate of calli growth after 2 weeks. The BASTA® concentrations (e.g., higher than 20 mg/L) that severely impeded calli development are optimal for enriching and selecting wheat cells having the PAT gene.

[2] = system: scutella of wild-type cv. Bobwhite MPB26RH (P197/P197); assay: basal tolerance to sulfometuron methyl at the callus induction stage; type: cell-based, Triticum aestivum; settings: 100 nM, 4 weeks, compared to untreated samples
Description: A series of experiments were performed to determine optimal selection conditions for regenerating wheat plants expressing the AHAS (P197S) mutation conferring tolerance to sulfonylurea class herbicides. These experiments were based on testing the basal tolerance of the wild-type donor wheat line cv. Bobwhite MPB26RH (P197/P197 genotype, which confers susceptibility to sulfonylureas) at the callus induction, plant regeneration and rooting stages of an established wheat transformation system. Similar experiments were performed to determine the basal tolerance of transgenic cv. Bobwhite MPB26RH events that had randomly integrated T-DNA expressing the AHAS (P197S) mutation, which confers tolerance to sulfonylurea selection agents.
The basal tolerance of the wild-type donor wheat line to sulfometuron methyl at the callus induction stage was determined as follows: scutella of immature zygotic embryos were isolated, as previously described in Example 4, and placed in 10 cm petri dishes containing CIM medium supplemented with 0, 100, 500, 1000, 1500 and 2000 nM sulfometuron methyl, respectively. Twenty scutella were placed in each petri dish. A total of 60 scutella were tested at each sulfometuron methyl concentration. After incubation at 24° C. in the dark for 4 weeks, the amount of somatic embryogenic callus formation (SEC) at each sulfometuron methyl concentration was recorded. […]

[3] = system: regenerated plants of wild-type cv. Bobwhite MPB26RH; assay: basal tolerance to sulfometuron methyl at the plant rooting stage; type: in vivo, Triticum aestivum; settings: wild-type donor wheat line; 3 weeks
Description: The basal tolerance of the wild-type donor wheat line to sulfometuron methyl at the plant rooting stage was determined as follows: scutella of immature zygotic embryos were isolated and placed in 10 cm petri dishes containing CIM medium. Then SEC was allowed to form by incubating at 24° C. in the dark for 4 weeks. The SEC was transferred to 10 cm petri dishes containing DRM medium and incubated for 2 weeks at 24° C. under a 16/8 (light/dark) hour photoperiod to allow plant regeneration to take place. Regenerated plants were transferred to 10 cm petri dishes containing RM medium supplemented with 0, 100, 200, 250, 300, 400, 500, 1000 and 2000 nM sulfometuron methyl, respectively. Ten regenerated plants were placed in each petri dish. A total of 30 regenerated plants were tested for basal tolerance response at each sulfometuron methyl concentration. After incubation for 3 weeks at 24° C. under a 16/8 (light/dark) hour photoperiod in a growth room, the root formation response was recorded.

[4] = system: transgenic wheat events with low-copy T-DNA expressing AHAS (P197S); assay: basal tolerance to sulfometuron methyl at the rooting stage of transgenic AHAS (P197S) events; type: in vivo, Triticum aestivum; settings: transgenic AHAS (P197S) events from pDAS000164; 400-600 nM; 2 weeks
Description: The basal tolerance of transgenic wheat events with randomly integrated, low-copy (≤3) T-DNA expressing the AHAS (P197S) mutation to sulfometuron methyl from pDAS000164 at the plant rooting stage was determined as follows: four independent transgenic events were randomly selected and multiplied in vitro by sub-culturing on multiplication medium. Following multiplication, plants for each event were transferred to 10 cm petri dishes containing RM medium supplemented with 0, 400, 450, 500, 550 and 600 nM sulfometuron methyl, respectively. Four plants (one from each of the four events) were placed in each petri dish. A total of 3 plants per event were tested for basal tolerance at each sulfometuron methyl concentration. After incubation for 2 weeks at 24° C. under a 16/8 (light/dark) hour photoperiod in a growth room, the root formation response was recorded.

[5] = system: somatic embryogenic callus of wild-type cv. Bobwhite MPB26RH; assay: basal tolerance to sulfometuron methyl at the plant regeneration stage; type: cell-based, Triticum aestivum; settings: wild-type donor wheat line; 2000 nM; 2 weeks; compared to untreated samples
Description: The basal tolerance of the wild-type donor wheat line to sulfometuron methyl at the plant regeneration stage was determined as follows: scutella of immature zygotic embryos from the donor wheat line were isolated and placed in 10 cm petri dishes containing CIM medium. Then SEC was allowed to form by incubating at 24° C. in the dark for 4 weeks. The SEC was transferred to 10 cm petri dishes containing DRM medium supplemented with 0, 100, 500, 1000, 1500, 2000, 2500 and 3000 nM sulfometuron methyl, respectively. Twenty CIM were placed in each petri dish. A total of 60 CIM were tested for basal tolerance response at each sulfometuron methyl concentration. After incubation for 2 weeks at 24° C. under a 16/8 (light/dark) hour photoperiod in a growth room, the regeneration response was recorded.

[6] = system: endogenous AHAS locus in scutella of cv. Bobwhite MPB26RH; assay: biolistics-mediated transformation for first sequential transgene stack with IMAZAMOX or BASTA selection; type: cell-based, Triticum aestivum; settings: donor with pDAB109350 at 5:1
Description: A total of 55,468 scutella of immature zygotic embryos from the donor wheat line cv. Bobwhite MPB26RH were prepared for biolistics-mediated DNA delivery, as described previously. DNA-coated gold particles were prepared with the formulations as described above. For transfections performed using the linear double-stranded donor DNA derived from “QA_pDAS000434” or pDAS000433, the donor DNA was mixed at a 5:1 molar ratio with plasmid DNA for pDAB109350 (encoding ZFNs 29732 and 29730). Transfections performed using pDAS000143 were performed using gold particles that were coated only with plasmid DNA for pDAS000143.
Biolistic-mediated transfections were performed as described previously. Following bombardment, the transfected scutella were incubated at 26° C. in the dark for 16 h before being transferred onto medium for callus induction.
Two different chemical selection strategies were used to enrich for regenerated wheat plants with an integrated linear double-stranded donor molecule. […] The purpose of the second chemical selection strategy was to allow the frequency of precise (on-target) versus random (off-target) donor integration to be quantified, as well as the frequency of perfect and imperfect integration at the endogenous AHAS loci. […]

## CP(=O)(O)CCC(N)C(=O)O (racemic) [BASTA, DL-Phosphinothricin]
[1]
  concentrations that severely impeded calli development: higher than 20 mg/L

## COC(=O)c1ccccc1S(=O)(=O)NC(=O)Nc1nc(C)cc(C)n1 [sulfometuron methyl]
[2]
  reduction of SEC formation: about 70%
[3]
  concentrations at which root formation was severely inhibited: higher than 400 nM
[4]
  root formation compared to untreated controls: not restricted
[5]
  reduction of plant regeneration: about 80%

B1: pDAS000433: donor molecule backbone for first transgene stack, S653N; SEQ ID NO:71 (nucleic acid)
DNA: CCACTCTTGCCCTACACGACACTGAAGACCTTATGATTCCAAACGGCGGCGCCTTCAAGGACATGATCATGGAGGGTGATGGCAGGACCTCGTACTGAAATTTCGACCTACAAGACCTACAAGTGTGACATGCGCAATCAGCATGGTGCCCGCGTGTTGTATCAACTACTAGGGGTTCAACTGTGAACCATGCGTTTTCTAGTTTGCTTGTTTCATTCATATAAGCTTGTGTTACTTAGTTCCGAACCCTGTAGCTTTGTAGTCTATGCTCTCTTTTGTAGGGATGTGCTGTCATAAGATATCATGCAAGTTTCTTGTCCTACATATCAATAATAAGTACTTCCATGGAATAATTCTCAGTTCTGTTTTGAATTTTGCATCTTCTCACAAACAGTGTGCTGGTTCCTTTCTGTTCGCTGACGCCCTCCTCGACTCCATCCCCATGGTCGCCATCACGGGCCAGGTCCCCCGCCGCATGATCGGTAGCGACTTCGTGGGCGAGGAAAGCCTTTCGTCCAAGGTGGTCCCTCCTCGCAATCTTGTTGGATGGTGAATATTATAAAAGCCTGCCCTTCTCGCGGGTAAGACTCCCGCCCATCCAGGATGAGGATGACCAGCCTTTTGCAGTTTATCCACTAGGGACAGGATTGCATCCTGCCGAAACCCTGCCAAGCTTGAGGTAGCCTCCAATTTGACGGTGCCGCCAGCGACGCCGTCTGGAACTGTCCTTTTTGAGGACCACTCCGTTTGTCTAGAGGTACCTGGAGATCATGACATTAAGGATGACCAGTTCGTAAAGGTCCTGCGGTGTCTATTGCTTTTCATAGGTTAATAAGTGTTTGCTAGACTGTGGTGAAAGGCCAAGACTCCCGCCCATCTCTCTATGCCCGGGACAAGTGCCACCCCACAGTGGGGCAGGATGAGGATGACCAAAGACTCCCGCCCATCTCACTAGGGACAGGATTGGCCTTTTGCAGTTTATCTCTATGCCCGGGACAAGTGTATCCGAAGTAAATAAAACCATCGGACTCTCGTATAAGACTGTCGACTCGACCGGCCGACGCATAGGTTCATTTGAAGCTGCTATTCTATTTAAATTGAAACTCGGACGGTAGCAGTGTGGTATGAGGTCTTCAGCACACTCGGTAACTCCAGTCAC
modifications: pDAS000433
[6]; BASTA selection
  wheat plants recovered: 1,652
[6]; IMAZAMOX selection
  wheat plants with AHAS herbicide tolerance phenotype recovered: No wheat plants
